Reference: patent publication US5189034A, “Benzoxazinone and benzothiazinone derivatives endowed with cardiovascular activity” (Italfarmaco S.P.A., priority 1990, dated 1993)

Assays:
[1] = test system: Arg-vasopressin induced coronaric spasm in anesthetized Sprague Dawley rats; assay: antianginal activity in vivo, Arg-vasopressin-induced coronaric spasm (increase of the T-wave); details: for ED50: Rattus norvegicus, iv, 4 increasing doses, Arg-vasopressin, read-out: ED50 (i.v.), dose yielding the 50% inhibition of the increase of the T-wave; for % Inhibition of the increase of the T-wave versus the controls: 3 mg/Kg per os, Arg-vasopressin i.v.
Procedure: The antianginal activity in vivo was determined on anesthetized Sprague Dawley rats of weight 350-400 g, operating according to the method of M. Leitold et al., Arzeim. Forsch., 36, 1454, (1986). The test was carried out by intravenously administering the animals with one I.U/Kg, equivalent to […] of Arg-vasopressin, thus inducing a coronaric spasm that is reproducible and may be electrocardiographically monitored by an increase of the T-wave. The compounds of the invention were administered by gastric gavage at a dose of 3 mg/Kg one […] before the administration of Arg-vasopressin. The antianginal effect was expressed as the percentage inhibition of the increase of the T-wave versus the controls. Another group of animals were intravenously administered with 4 increasing doses of the compound of the invention to measure their ED50, i.e. the dose yielding the 50% inhibition of the increase of the T-wave.

[2] = test system: rabbit aorta strip contracted with noradrenaline; assay: rabbit aorta strip contracted with noradrenaline (in vitro vasorelaxing activity); format: cell-based; details: Oryctolagus cuniculus, concentration causing 50% inhibition of the contraction of the rabbit aorta strip, read-out: Vasodilative activity in vitro IC50
Procedure: The in vitro vasorelaxing activity was determined by the test of the rabbit aorta strip contracted with noradrenaline. The test was carried out according to the method described by K. Murakami et al., Eur. J. Pharmacol., 141, 195 (1987).
The IC50 values i.e., the concentrations of active substances, causing a 50% inhibition of the contraction of the rabbit strip, were determined.

[3] = B. W. Horrom et al., J. Org. Chem., 72, 721 (1950); cited from earlier work

| SMILES | IC50 [2] | ED50 [1] | analgesic activity [3] | % Inhibition of the increase of the T-wave versus the controls [1] |
| --- | --- | --- | --- | --- |
| O=C1NC(c2ccccc2)Oc2ccccc21 (stereo not shown) [2,3-dihydro-2-phenyl-4H-1,3-benzoxazin-4-one] |  |  | endowed with analgesic activity |  |
| Cc1ccc2c(c1)OCN(CCO[N+](=O)[O-])C2=O [Example 4, 2,3-Dihydro-7-methyl-3-(2'-nitrooxyethyl)-4H-1,3-benzoxazin-4-one] | 75 nM | 0.012 mg/kg |  | 31% |
| O=C1c2ccccc2SCN1CCO[N+](=O)[O-] [Example 10, 3(2'-nitrooxyethyl)-2,3-dihydro-4H-1,3-benzothiazin-4-one] | 17 nM |  |  |  |
| COc1ccc2c(c1)OCN(CCO[N+](=O)[O-])C2=O [Example 9, 2,3-Dihydro-7-methoxy-3-(2'-nitrooxyethyl)-4H-1,3-benzoxazin-4-one] | 14 nM |  |  |  |

Continued, in another order:

| IC50 [2] | SMILES | ED50 [1] | analgesic activity [3] | % Inhibition of the increase of the T-wave versus the controls [1] |
| --- | --- | --- | --- | --- |
| 19 nM | O=C1c2ccccc2OCN1CCCCCO[N+](=O)[O-] [Example 8, 2,3-Dihydro-3-(5'-nitrooxypentyl)-4H-1,3-benzoxazin-4-one] | 0.058 mg/kg |  |  |
| 6.3 nM | O=C1c2ccc(Cl)cc2OCN1CCO[N+](=O)[O-] [Example 3, 7-Chloro-2,3-dihydro-3-(2'-nitrooxyethyl)-4H-1,3-benzoxazin-4-one] | 0.011 mg/kg |  | 31% |
| 94 nM | O=C1c2ccccc2OCN1CCO[N+](=O)[O-] [Example 1, 2,3-Dihydro-3-(2'-nitrooxyethyl)-4H-1,3-benzoxazin-4-one] | 0.0013 mg/kg |  | 55% |
| 5.4 nM | Cc1ccc2c(c1)C(=O)N(CCO[N+](=O)[O-])CO2 [Example 2, 2,3-Dihydro-6-methyl-3-(2'-nitrooxyethyl)-4H-1,3-benzoxazin-4-one] | 0.0063 mg/kg |  |  |
